From patent US11618749B2, “Compounds and compositions for treating conditions associated with STING activity” (IFM Due, Inc., priority 2018, dated 2023)

Molecular target: T1, hSTING (Homo sapiens, UniProt Q86WV6, G230A/H232R/R293Q/R71H)
T1 construct: host or cells: THP1-Dual KO-IFNAR2 cells
Experiment: STING reporter assay (luciferase reporter) in THP1-Dual KO-IFNAR2 cells activated with 2′3′cGAMP
Format: cell-based
Settings: 15 μM 2′3′cGAMP, 24 h, luciferase reporter activity
Experimental: STING pathway activation by the compounds described herein is measured using THP1-Dual™ cells (KO-IFNAR2).
THP1-Dual™ KO-IFNAR2 Cells (obtained from invivogen) are maintained in RPMI, 10% FCS, 5 ml P/S, 2 mM L-glut, 10 mM Hepes, and 1 mM sodium pyruvate. Compounds are spotted in empty 384 well tissue culture plates (Greiner 781182) by Echo for a final concentration of […]. Cells are plated into the TC plates at 40 μL per well, 2×10E6 cells/mL. For activation with STING ligand, 2′3′cGAMP (MW 718.38, obtained from Invivogen), is prepared in Optimem media.
The following solutions are prepared for each 1×384 plate: • Solution A: 2 mL Optimem with one of the following stimuli: • 60 uL of 10 mM 2′3′cGAMP→150 μM stock • Solution B: 2 mL Optimem with 60 μL Lipofectamine 2000→Incubate 5 min at RT
2 mL of solution A and 2 ml Solution B is mixed and incubated for 20 min at room temperature (RT). 20 uL of transfection solution (A+B) is added on top of the plated cells, with a final 2′3′cGAMP concentration of 15 μM. The plates are then centrifuged immediately at 340 g for 1 minute, after which they are incubated at 37° C., 5% CO2, >98% humidity for 24 h. Luciferase reporter activity is then measured. EC50 values were calculated by using standard methods known in the art.
Luciferase Reporter Assay:
10 μL of supernatant from the assay is transferred to white 384-plate with flat bottom and squared wells. one pouch of QUANTI-Luc™ Plus is dissolved in 25 mL of water. 100 μL of QLC Stabilizer per 25 mL of QUANTI-Luc™ Plus solution was added. 50 μL of QUANTI-Luc™ Plus/QLC solution per well is then added. Luminescence is measured on a Platereader (e.g., Spectramax I3X (Molecular Devices GF3637001)).
Luciferase reporter activity is then measured. EC50 values are calculated by using standard methods known in the art.

T1 sequence (Q86WV6 whole entry R71H/G230A/H232R/R293Q): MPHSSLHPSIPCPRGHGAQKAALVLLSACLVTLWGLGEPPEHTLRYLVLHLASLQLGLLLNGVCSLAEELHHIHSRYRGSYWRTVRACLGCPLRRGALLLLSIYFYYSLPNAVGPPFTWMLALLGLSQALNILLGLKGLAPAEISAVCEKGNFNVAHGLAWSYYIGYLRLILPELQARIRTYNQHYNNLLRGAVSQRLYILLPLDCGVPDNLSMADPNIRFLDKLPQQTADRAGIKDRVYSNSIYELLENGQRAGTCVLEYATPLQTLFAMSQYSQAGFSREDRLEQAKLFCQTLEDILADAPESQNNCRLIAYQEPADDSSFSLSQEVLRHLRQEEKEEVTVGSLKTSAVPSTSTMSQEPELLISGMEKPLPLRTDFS

| EC50 [nM] | Structure (SMILES) |
| --- | --- |
| 200 to 1000 | CCCCc1ncc(NC(=O)Nc2c[nH]c3ncc(F)cc23)cc1F [Compound 255] |
| 5000 to 100000 | O=C(Nc1ccc(C(F)(F)F)nc1)Nc1c[nH]c2ncccc12 [Compound 257] |
| 200 to 1000 | C#Cc1cnc2[nH]cc(NC(=O)Nc3ccc(C(F)(F)F)cc3)c2c1 [Compound 258, 1-(5-ethynyl-1H-pyrrolo[2,3-b]pyridin-3-yl)-3-(4-(trifluoromethyl)phenyl)urea] |
| 200 to 1000 | CCCCc1ccc(NC(=O)Nc2c[nH]c3ncc(F)cc23)nc1 [Compound 259] |
| 1000 to 5000 | O=C(Nc1cccc(C2CCCCC2)n1)Nc1c[nH]c2ncc(F)cc12 [Compound 260] |
| 40 to 200 | O=C(Nc1ccc(C2CCCCC2)cn1)Nc1c[nH]c2ncc(F)cc12 [Compound 261] |
| 200 to 1000 | O=C(Nc1ccc(C2CCCCC2)nc1)Nc1c[nH]c2ncccc12 [Compound 263] |
| 200 to 1000 | O=C(Nc1ccc(C2CCCCC2)cn1)Nc1c[nH]c2ncccc12 [Compound 264] |
| 200 to 1000 | O=C(Nc1ccc(C(F)(F)F)cn1)Nc1c[nH]c2ncccc12 [Compound 265] |
| 1000 to 5000 | O=C(Nc1ccc(C(F)(F)F)cc1)Nc1c[nH]c2ncc(C3CCCCC3)cc12 [Compound 267, 3-[5-cyclohexyl-1H-pyrrolo[2,3-b]pyridin-3-yl]-1-[4-(trifluoromethyl)phenyl] urea] |
| 200 to 1000 | CCc1cnc2[nH]cc(NC(=O)Nc3ccc(C(F)(F)F)cc3)c2c1 [Compound 268, 3-[5-ethyl-1H-pyrrolo[2,3-b]pyridin-3-yl]-1-[4-(trifluoromethyl)phenyl] urea] |
| 5000 to 100000 | O=C(Nc1c[nH]c2ncc(F)cc12)NC1CCC(C(F)(F)F)CC1 (stereo not drawn) [Compound 270] |
| 200 to 1000 | O=C(Nc1cccc(C2CCCCC2)c1)Nc1c[nH]c2ncc(F)cc12 [Compound 271] |
| 40 to 200 | O=C(Nc1ccc(C2CCCCC2)nc1)Nc1c[nH]c2ncc(F)cc12 [Compound 272] |
| 200 to 1000 | CCCCC1CCC(NC(=O)Nc2c[nH]c3ncc(F)cc23)CC1 (stereo not drawn) [Compound 273] |
| 40 to 200 | CCCCc1cccc(NC(=O)Nc2c[nH]c3ncc(F)cc23)c1 [Compound 274] |
| 40 to 200 | CCCCc1ccc(NC(=O)Nc2c[nH]c3ncc(F)cc23)cc1 [Compound 275] |
| 200 to 1000 | C=Cc1cnc2[nH]cc(NC(=O)Nc3ccc(C(F)(F)F)cc3)c2c1 [Compound 276, 3-[5-ethenyl-1H-pyrrolo[2,3-b]pyridin-3-yl]-1-[4-(trifluoromethyl)phenyl] urea] |
| 5000 to 100000 | CC(NC(=O)Nc1c[nH]c2ncc(F)cc12)c1ccc2c(c1)OCCO2 (stereo not drawn) [Compound 279] |
| 1000 to 5000 | O=C(Nc1ccc(F)cn1)Nc1c[nH]c2ncc(F)cc12 [Compound 280] |

| EC50 [nM] | Structure (SMILES) |
| --- | --- |
| 1000 to 5000 | O=C(Nc1ccc(C(F)(F)F)nc1)Nc1c[nH]c2ncc(F)cc12 [Compound 281] |
| 200 to 1000 | O=C(Nc1ccc(C(F)(F)F)c(Cl)c1)Nc1c[nH]c2ncc(F)cc12 [Compound 282] |
| 40 to 200 | O=C(Nc1ccc(C(F)(F)F)cc1)Nc1c[nH]c2ncc(Cl)cc12 [Compound 283] |
| 1000 to 5000 | O=C(Nc1cccc2c1CCCC2)Nc1c[nH]c2ncc(F)cc12 [Compound 284] |
| 1000 to 5000 | CCCCC1CCC(NC(=O)Nc2c[nH]c3ncccc23)C1 (stereo not drawn) [Compound 285] |
| 1000 to 5000 | Cc1nc2cc(NC(=O)Nc3c[nH]c4ncc(F)cc34)ccc2s1 [Compound 286] |
| 1000 to 5000 | O=C(Nc1ccc2ccncc2c1)Nc1c[nH]c2ncc(F)cc12 [Compound 287] |
| 5000 to 100000 | O=C(Nc1ccc2cnccc2c1)Nc1c[nH]c2ncc(F)cc12 [Compound 288] |
| 5000 to 100000 | O=C(Nc1c[nH]c2ncccc12)N1CC(c2ccccc2)C1 [Compound 289] |
| 40 to 200 | C#Cc1ccc(NC(=O)Nc2c[nH]c3ncc(F)cc23)cc1 [Compound 291] |
| 200 to 1000 | O=C(Nc1nc2ccccc2s1)Nc1c[nH]c2ncc(F)cc12 [Compound 292] |
| 200 to 1000 | O=C(Nc1ncc(-c2ccccc2)s1)Nc1c[nH]c2ncc(F)cc12 [Compound 293] |
| 5000 to 100000 | CCCCC1CCN(C(=O)Nc2c[nH]c3ncc(F)cc23)CC1 [Compound 294] |
| 200 to 1000 | O=C(Nc1cnc(-c2ccccc2)s1)Nc1c[nH]c2ncc(F)cc12 [Compound 295] |
| 40 to 200 | O=C(Nc1ccc2c(c1)CCCC2)Nc1c[nH]c2ncc(F)cc12 [Compound 296] |
| 200 to 1000 | O=C(Nc1cccc(C(F)(F)F)c1)Nc1c[nH]c2ncc(F)cc12 [Compound 297] |
| 1000 to 5000 | O=C(Nc1cc(F)cc(F)c1)Nc1c[nH]c2ncc(F)cc12 [Compound 298] |
| 5000 to 100000 | O=C(Nc1cc(F)cc(F)c1)Nc1c[nH]c2ncccc12 [Compound 299] |
| 200 to 1000 | O=C(Nc1c[nH]c2ncc(F)cc12)NC1CCC2(CCCCC2)CC1 [Compound 300] |
| 5000 to 100000 | O=C(Nc1c[nH]c2ncccc12)N1CCCc2ccccc21 [Compound 301] |

| EC50 [nM] | Structure (SMILES) |
| --- | --- |
| 5000 to 100000 | O=C(Nc1c[nH]c2ncccc12)NC1Cc2ccccc2C1 [Compound 302] |
| 5000 to 100000 | O=C(Nc1c[nH]c2ncccc12)N1CCc2ccccc21 [Compound 303] |
| 5000 to 100000 | O=C(Nc1c[nH]c2ncccc12)NC1CCCC(c2ccccc2)C1 (stereo not drawn) [Compound 304] |
| 1000 to 5000 | O=C(Nc1c[nH]c2ncc(F)cc12)NC1CCC2(CC1)CC2 [Compound 305] |
| 5000 to 100000 | O=C(Nc1c[nH]c2ncccc12)N1CCc2ccccc2C1 [Compound 306] |
| 5000 to 100000 | O=C(Nc1c[nH]c2ncccc12)N1CCCC(c2ccccc2)C1 (stereo not drawn) [Compound 307] |
| 1000 to 5000 | O=C(Nc1ccc(C2CCCCC2)nc1)Nc1c[nH]c2cnccc12 [Compound 312] |
| 1000 to 5000 | O=C(Nc1ccc(C2CCCCC2)cn1)Nc1c[nH]c2cnccc12 [Compound 313] |
| 1000 to 5000 | CCCCC1CCC(NC(=O)Nc2c[nH]c3cnccc23)CC1 (stereo not drawn) [Compound 314] |
| 1000 to 5000 | O=C(Nc1ccc(C2CCCCC2)nc1)Nc1c[nH]c2ccncc12 [Compound 315] |
| 200 to 1000 | O=C(Nc1ccc(C2CCCCC2)cn1)Nc1c[nH]c2ccncc12 [Compound 316] |
| 200 to 1000 | CCCCC1CCC(NC(=O)Nc2c[nH]c3ccncc23)CC1 (stereo not drawn) [Compound 317] |
| 5000 to 100000 | O=C(Nc1ccc(C(F)(F)F)nc1)Nc1c[nH]c2ccncc12 [Compound 318] |
| 1000 to 5000 | O=C(Nc1ccc(C(F)(F)F)cn1)Nc1c[nH]c2ccncc12 [Compound 319] |
| 5000 to 100000 | COc1nccc2[nH]cc(NC(=O)Nc3ccc(C(F)(F)F)cc3)c12 [Compound 320, 1-(4-methoxy-1H-pyrrolo[3,2-c]pyridin-3-yl)-3-(4-(trifluoromethyl)phenyl)urea] |
| 5000 to 100000 | O=C(Nc1c[nH]c2ccncc12)NC1CCC(c2ccccc2)CC1 (stereo not drawn) [Compound 321] |
| 1000 to 5000 | CCCCC1CCC(NC(=O)Nc2c[nH]c3cccnc23)CC1 (stereo not drawn) [Compound 322] |
| 5000 to 100000 | C#Cc1ccc2[nH]cc(NC(=O)Nc3ccc(C(F)(F)F)cc3)c2n1 [Compound 324, 1-(5-ethynyl-1H-pyrrolo[3,2-b]pyridin-3-yl)-3-(4-(trifluoromethyl)phenyl)urea] |
| 5000 to 100000 | O=C(Nc1c[nH]c2cccnc12)NC1CCC(c2ccccc2)CC1 (stereo not drawn) [Compound 325] |
| 200 to 1000 | O=C(Nc1ccc(C2CCCCC2)cn1)Nc1c[nH]c2cccnc12 [Compound 326] |
